Data: ChEMBL document CHEMBL1140142, “Myxochromide B3, a new member of the myxochromide family of secondary metabolites” (J Nat Prod, 2008)
The source made the active and inactive calls.

Columns and labels:
Assay type in all cases: functional, organism-based
Escherichia coli = assay: Antimicrobial activity against Escherichia coli at 50 ug/disk by disk diffusion assay
Mycotypha microspora = assay: Antimicrobial activity against Mycotypha microspora at 50 ug/disk by disk diffusion assay
Microbotryum violaceum = assay: Antimicrobial activity against Microbotryum violaceum at 50 ug/disk by disk diffusion assay
[Chlorella] fusca = Antimicrobial activity against Chlorella fusca at 50 ug/disk by disk diffusion assay; conditions: Scenedesmus fuscus
Priestia megaterium = assay: Antimicrobial activity against Bacillus megaterium at 50 ug/disk by disk diffusion assay
Aspergillus ruber = assay: Antimicrobial activity against Eurotium rubrum at 50 ug/disk by disk diffusion assay

Measured: Activity

C/C=C/C=C/C=C/C=C/C=C/C=C/C=C/C=C/C(=O)N(C)[C@@H]1C(=O)N[C@H](C)C(=O)N[C@@H](CC(C)C)C(=O)N[C@@H](CC(C)C)C(=O)N2CCC[C@H]2C(=O)N[C@@H](C)C(=O)N[C@@H](CCC(N)=O)C(=O)O[C@@H]1C
inactive: Escherichia coli | Mycotypha microspora | Microbotryum violaceum | [Chlorella] fusca | Priestia megaterium | Aspergillus ruber

C/C=C/C=C/C=C/C=C/C=C/C=C/C=C/C=C/C(=O)N(C)[C@@H]1C(=O)N[C@H](C)C(=O)N[C@@H](CC(C)C)C(=O)N2CCC[C@H]2C(=O)N[C@@H](C)C(=O)N[C@@H](CCC(N)=O)C(=O)O[C@@H]1C
inactive: Escherichia coli | Mycotypha microspora | Microbotryum violaceum | [Chlorella] fusca | Priestia megaterium | Aspergillus ruber
